# Reference: patent US12692274B2, “Tetrahydroisoquinoline derivatives for the treatment of red blood disorders and inflammatory diseases” (Sanofi, priority 2020, dated 2026)
# Where “and” joins values, the source holds several entries; their conditions need not be identical. Identical values can stand only once.
# Tests used:
# [1] = test system: NQO1 activation in BEAS-2B cells; assay: BEAS-2B cellular MTT assay of NQO1 activation, 0% HSA; format: cell-based
# Experimental: (§1) The growth rate of the BEAS-2B cells changed based on the lot of BEGM SingleQuots in the BEGM media. The cell growth rate was determined for each lot of SingleQuots. Ideally, cells were thawed into media with the new lot of SingleQuots and grown for two passages before testing; however, growing an active culture in the new lot of media for two to three passages before testing was also acceptable. Until the cell growth rate was determined, cells were seeded at different densities (cells/cm^2) in multiple tissue culture flasks in order to avoid the cells becoming more than 70% confluent. Cells should not go above 70% confluent as the cells differentiate when they become confluent. After the cells were grown in the new lot of media as described above, the number of cells per well needed to seed in the collagen plates was determined by seeding different numbers of cells per well and incubating for 48 hours. Cell confluency was checked after 48 hours and a cell number that results in just below to just above confluency was chosen for future plate seeding. Cell confluency in the assay plate was 95-100% confluent after 48 hours.
# (§2) Cell media consists of BEBM basal media with the BEGM SingleQuots added. SingleQuots vials were thawed in the tissue culture hood, and GA-1000 (Gentamicin-Amphotericin) was not added.
# (§3) If complete media was to be used immediately, BEBM basal media was warmed to room temperature in the hood, but not as high as 37° C. When the media was made for future use, SingleQuots were added to cold BEBM. One at a time, the SingleQuots components (except GA-1000) were added to the BEBM media. After removal of each component from the vial, the vial was rinsed with 0.5-1 mL of BEBM (depending on the volume the vial could hold) and added to the bottle of BEBM. Once all components were added, the label that comes with the SingleQuots kit was put on the bottle of media and the date was recorded. The bottle of media was mixed by gentle shaking. The media was not filtered. This media was stored at 4° C., with any leftover media disposed of one month after the date the SingleQuots were added.
# (§4) BEAS-2B Cell Splitting Protocol:
# (§5) First, Trypsin was warmed to 37° C. in the water bath. The media was then warmed to room temperature by letting it sit in the tissue culture hood, but not as high as 37° C. The media was aspirated from flask(s) and the flask(s) were washed with PBS. From 1 to 1.5 mL of warm trypsin were added to each flask and incubated at 37° C. until cells came off the flask on their own (~8-10 minutes), with no vigorous tapping on the flask to detach the cells.
# (§6) Media was added to each flask to a total volume of 8-10 mL per flask and transferred to 15 mL conical tube(s). The cells were spun down at 120 g for 5 minutes, level 5 brake. The cells can be spun down between 100 and 150 g. Next the media was aspirated and the cell pellet was resuspended in fresh media by pipetting up and down and flicking the tube side to side. Any clumps of cells that remained were allowed to settle to the bottom of the tube before the top suspension was transferred into another tube, leaving about 1 mL of media in the original tube. The 1 mL of media and cell clumps were mixed with a single channel p1000 pipette, and any remaining clumps were removed before adding the cells in suspension to the other tube. The suspension was mixed with a pipette, an aliquot was removed, and the cells were counted. The amount of cells/cm^2 desired was calculated and the required volume of cells was added to tissue culture flasks. For example, use of SingleQuots with ~6000 cells/cm^2 was appropriate for a three day incubation and ~3000 cells/cm^2 for a five day incubation. Optimal cell density differed depending on lot of SingleQuots. The flasks were incubated at 37° C. in 5% CO2.
# (§7) Day One: Seeding BEAS-2B Cells in Collagen Plates:
# (§8) Plate(s) were either seeded with 0.3% or 0% HSA. While the protocol was similar for both conditions any differences are noted herein below. […]
# [2] = test system: NQO1 activation in BEAS-2B cells; assay: BEAS-2B cellular MTT assay of NQO1 activation, 0.3% HSA; format: cell-based
# Experimental: as §1, §2, §3, §4, §5, §6, §7, §8
# [3] = molecular target: HIS-Keap1 full length / Biotin-Nrf2 (16-mer) (Homo sapiens, UniProt Q14145); assay: biochemical
# [4] = Homo sapiens, Serum Free W, read-out: BEAS EC50 (nM) Serum Free W
# [5] = Serum Free W, read-out: BEAS EC50 (nM) Serum Free W
# [6] = BEAS+ W, read-out: BEAS+ W EC50
# [7] = Homo sapiens, BEAS+ W, read-out: BEAS+ W EC50
# [8] = Homo sapiens, serum free, read-out: BEAS EC50 (nM) serum free
# [9] = Homo sapiens, BEAS+, read-out: BEAS+ EC50
# [10] = serum free, read-out: BEAS EC50 (nM) serum free
# Sequence of HIS-Keap1 full length / Biotin-Nrf2 (16-mer) (Q14145 whole entry): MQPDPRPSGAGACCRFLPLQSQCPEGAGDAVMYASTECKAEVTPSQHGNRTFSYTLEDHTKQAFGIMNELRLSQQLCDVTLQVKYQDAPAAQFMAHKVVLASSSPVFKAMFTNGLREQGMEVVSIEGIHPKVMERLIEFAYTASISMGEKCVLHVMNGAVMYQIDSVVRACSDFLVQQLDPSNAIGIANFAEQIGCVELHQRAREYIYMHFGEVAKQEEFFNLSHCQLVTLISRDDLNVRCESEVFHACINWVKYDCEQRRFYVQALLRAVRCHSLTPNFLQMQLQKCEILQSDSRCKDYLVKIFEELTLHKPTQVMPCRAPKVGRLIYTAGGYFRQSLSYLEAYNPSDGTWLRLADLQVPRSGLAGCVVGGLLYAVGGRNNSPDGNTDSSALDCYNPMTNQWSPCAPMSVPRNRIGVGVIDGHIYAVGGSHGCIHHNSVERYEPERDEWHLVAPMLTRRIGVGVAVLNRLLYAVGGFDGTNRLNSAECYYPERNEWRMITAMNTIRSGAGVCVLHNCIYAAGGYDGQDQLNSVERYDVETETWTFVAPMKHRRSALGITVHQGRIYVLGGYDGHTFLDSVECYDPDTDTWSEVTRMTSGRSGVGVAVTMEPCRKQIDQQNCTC
SMILES,"EC50 [1, 4]","EC50 [1, 5]","EC50 [2, 6]","EC50 [2, 7]",IC50 [3],"EC50 [1, 8]","EC50 [2, 9]","EC50 [1, 10]","EC50 ([2]; BEAS+, read-out: BEAS+ EC50)"
Cc1c2ccc3c1nnn3CCCOCCc1ccc(c(F)c1)C(=O)N1CCc3ccc(cc3C1)[C@H]2CC(=O)O [Compound 357],> 1000 nM,969 nM,1710 nM,1940 nM,11.4 nM and 11 nM,,,,
Cc1c2ccc3c1nnn3CCCCCCc1ccc3c(c1)cc(n3C)C(=O)N1CCc3ccc(cc3C1)[C@@H]2[C@H](C)C(=O)O [Compound 34],3.6 nM,3.8 nM,189 nM,190 nM,1.7 nM and 0.6 nM,,,,
O=C(O)CC1c2ccc3c(c2)CN(CC3)C(=O)c2ccc(cc2F)CCCCCCn2nnc3cc1ccc32 (centres unmarked) [Compound 278],,,,,1.8 nM (2×) and 1.4 nM and 1.3 nM,136 nM,159 nM,,
Cc1c2ccc3c1nnn3CCCCCc1ccc(cc1)C(=O)N1CCc3ccc(cc3C1)[C@H]2CC(=O)O [Compound 286],,,,,0.7 nM,15.8 nM,44.5 nM,,
Cc1c2ccc3c1nnn3CCCCCc1cnc(c(F)c1)C(=O)N1CCc3ccc(cc3C1)C2CC(=O)O (centres unmarked) [Compound 219],,,,,1.3 nM and 1.5 nM,180 nM,228 nM,208 nM,208 nM
Cc1cc2ccc1C(=O)N1CCc3ccc(cc3C1)C(CC(=O)O)c1cnc(nc1)OCCCCO2 (centres unmarked) [Compound 182],> 1000 nM,,,> 10000 nM,55.7 nM and 44 nM,,,,
O=C(O)CC1c2ccc3c(c2)CN(CC3)C(=O)c2c(F)cc(cc2F)CCCCCCn2nnc3cc1ccc32 (centres unmarked) [Compound 243],,,,,2.6 nM,40.7 nM,71.8 nM,48.7 nM,104 nM
Cc1c2ccc3c1nnn3CCCCCc1ccc(c3ncccc13)C(=O)N1CCc3ccc(cc3C1)[C@@H]2CC(=O)O [Compound 51],44.9 nM,38.6 nM,125 nM,70.6 nM,0.3 nM and 0.2 nM,,,,
Cc1cc2cc(C)c1C(=O)N1CCc3ccc(cc3C1)C(CC(=O)O)c1ccc3c(c1)nnn3CCCCCCO2 (centres unmarked) [Compound 293],,,,,< 0.1 nM,141 nM,208 nM,,
COc1cc2ccc1C(=O)N1CCc3ccc(cc3C1)C(CC(=O)O)c1ccc3c(nnn3CCCCC2)c1C (centres unmarked) [Compound 191],,,,,19.5 nM and 20.4 nM,11.4 nM,20.5 nM,18 nM,18 nM
Cc1c2cnc3c1nnn3CCCCCCc1c(F)c(F)c(c(F)c1F)C(=O)N1CCc3ccc(cc3C1)[C@@H]2[C@@H](C)C(=O)O [Compound 36],35 nM,36.7 nM,95.4 nM,184 nM,12.7 nM and 2.5 nM,,,,
Cc1nc2ccc1C(CC(=O)O)c1ccc3c(c1)CN(CC3)C(=O)c1c(F)cc(cc1F)OCCCCO2 (centres unmarked) [Compound 180],,,,,253 nM and 296 nM,701 nM,1300 nM,878 nM,1000 nM
Cc1cc2ccc1C(=O)N1CCc3ccc(cc3C1)C(CC(=O)O)c1ccc(nc1)OCCCCO2 (centres unmarked) [Compound 209],,,,,0.4 nM and 0.5 nM,469 nM,843 nM,494 nM,903 nM
Cc1c2ccc3c1nnn3CCCCCCc1ccc(cc1)C(=O)N1CCc3ccc(cc3C1)C2CC(=O)O (centres unmarked) [Compound 307],,,,,0.2 nM,0.4 nM,3.7 nM,,5.2 nM
O=C(O)CC1c2ccc3c(c2)CN(CC3)C(=O)c2c(F)cc(cc2F)OCCCCCCn2nnc3cc1ccc32 (centres unmarked) [Compound 321],,,,,0.4 nM and 0.1 nM,75.7 nM,88.9 nM,,
Cc1c2ccc3c1nnn3CCCCOCc1ccc(c(F)c1)C(=O)N1CCc3ccc(cc3C1)C2CC(=O)O (centres unmarked) [Compound 387],,,,,1.5 nM and 1.7 nM,95.9 nM,62.6 nM,75.2 nM,90.3 nM

SMILES,"EC50 [1, 4]","EC50 [1, 5]","EC50 [2, 6]","EC50 [2, 7]",IC50 [3],"EC50 [1, 8]","EC50 [2, 9]","EC50 [1, 10]","EC50 ([2]; BEAS+, read-out: BEAS+ EC50)"
CC(C)(C(=O)O)C1c2ccc3c(c2)CN(CC3)C(=O)c2ccc(cc2F)OCCCCCCn2nnc3cc1ccc32 (centres unmarked) [Compound 288],,,,,1.8 nM and 2.3 nM,2.7 nM,34.3 nM,,
Cc1c2ccc3c1nnn3CCCCCCc1ccc(c3ncccc13)C(=O)N1CCc3ccc(cc3C1)[C@@H]2CC(=O)O [Compound 50],57.3 nM,47.6 nM,138 nM,89.7 nM,0.2 nM and 0.3 nM,,,,
Cc1c2ccc3c1nnn3CCCCCCOc1cnc(c(F)c1)C(=O)N1CCc3ccc(cc3C1)C2CC(=O)O (centres unmarked) [Compound 217],,,,,1.9 nM and 2.1 nM,371 nM,429 nM,360 nM,301 nM
O=C(O)CC1c2ccc(nc2)OCCCCOc2ccc(cc2Cl)C(=O)N2CCc3ccc1cc3C2 (centres unmarked) [Compound 212],,,,,7.7 nM and 5.7 nM,190 nM,606 nM,254 nM,811 nM
Cc1cc2cnc1OCCCCCc1ccc(cc1)C(=O)N1CCc3ccc(cc3C1)[C@H]2[C@H](C)C(=O)O [Compound 70],32.4 nM,29.9 nM,221 nM,150 nM,594 nM and 763 nM,,,,
Cc1c2ccc3c1nnn3CCCCC(F)(F)Oc1ccc(cc1)C(=O)N1CCc3ccc(cc3C1)C2CC(=O)O (centres unmarked) [Compound 304],,,,,< 0.1 nM and 0.2 nM,18.3 nM,25.1 nM,,29 nM
O=C(O)CC1c2ccc3c(c2)CN(CC3)C(=O)c2ccc(cc2)CCCCCCn2nnc3cc1ccc32 (centres unmarked) [Compound 280],,,,,2.3 nM (2×) and 2.8 nM (2×),108 nM,114 nM,,
Cc1c2ccc3c1nnn3CCCCCCc1ccc(cc1)C(=O)N1CCc3ccc(cc3C1)[C@@H]2[C@H](C)C(=O)O [Compound 175],,,,,10.4 nM and 10.3 nM,53.3 nM,104 nM,53.7 nM,125 nM
O=C(O)CC1c2ccc3c(c2)CN(CC3)C(=O)c2ccc(c3ccccc23)OCCCCCn2nnc3cc1ccc32 (centres unmarked) [Compound 337],,,,,0.7 nM and 0.8 nM,1890 nM,2540 nM,,
Cc1c2ccc3c1nnn3CCCCCc1ccc(cc1)C(=O)N1CCc3ccc(cc3C1)[C@@H]2CC(=O)O [Compound 285],,,,,0.3 nM and 0.5 nM,4.7 nM,9.8 nM,,
C[C@@H](C(=O)O)[C@H]1c2ccc3c(c2)CN(CC3)C(=O)c2ccc(cc2)OCCCCCCn2nnc3cc1ccc32 [Compound 324],,,,,0.4 nM,6 nM,18.1 nM,,
Cc1c2ccc3c1nnn3CCCCCCOc1ccc(c3ccccc13)C(=O)N1CCc3ccc(cc3C1)C2CC(=O)O (centres unmarked) [Compound 284],,,,,0.4 nM and 0.3 nM,3.4 nM,22.8 nM,,
Cc1cc2ccc1C(=O)N1CCc3ccc(cc3C1)[C@H]([C@@H](C)C(=O)O)c1ccc3c(nnn3CCCOCCO2)c1C [Compound 371],,,,,1.6 nM and 1.7 nM,21.3 nM,23.6 nM,22.1 nM,28.8 nM
O=C(O)CC1c2ccc3c(c2)CN(CC3)C(=O)c2ccc(cc2F)CCCCCCn2nnc3c(Cl)c1ccc32 (centres unmarked) [Compound 148],,,,,0.3 nM and 0.4 nM and 0.8 nM and 0.7 nM,,,,0.3 nM
Cc1c2oc3cc(ccc13)OCCCCCCn1nnc3c(C)c(ccc31)C(CC(=O)O)c1ccc3c(c1)CN(CC3)C2=O (centres unmarked) [Compound 402],,,,,58.7 nM and 57.7 nM,,> 10000 nM,,
Cc1c2ccc3c1nnn3CCOCCCc1ccc(c(F)c1)C(=O)N1CCc3ccc(cc3C1)[C@H]2CC(=O)O [Compound 363],,,711 nM,682 nM,9 nM and 8.5 nM,,,,
